Source: paper PMC10382604, “The mirrored cationic peptide as miRNA vehicle for efficient lung cancer therapy” (MedComm, 2023)
Ends that are not written are not given here.

Key:
Experiment in all cases: CCK-8 cytotoxicity of the peptides
Details in all cases: CCK-8 assay, peptide alone, Figure S1
[1] = test system: A549 (lung adenocarcinoma cells); assay type: cell-based, human
Experimental: (§1) Cell viability was detected by CCK8 assay (Beyotime Biotechnology, China) based on the universal protocol.[38] The ratio of cell viability was calculated as A treated/A control × 100%.

[2] = test system: NCI‐H1299 (lung adenocarcinoma cells); assay type: cell-based, human
Experimental: as §1

[3] = test system: BEAS‐2B cells (human bronchial epithelial cells); assay type: cell-based
Experimental: as §1

Measured: cytotoxicity

RGDGSRRRRPLGLAGRRRRGSRGD [RD24]
no significant cytotoxicity: all assays above

RRRRPLGLAGRRRR [RR14]
no significant cytotoxicity: all assays above

RGDGSRRRRPLGLAGRRRR [RR19]
no significant cytotoxicity: all assays above
